According to patent US11479587B2, “Cationic intrinsically disordered antimicrobial peptides” (priority 2016, dated 2022):
In brackets after ≈: the same amount, converted by molar mass. Several values for one entry are separate records, joined by “and”; a condition that tells them apart may be missing. Identical values can stand only once. Like-named read-outs stand apart in the source and are kept apart here. Residues, ends and D or L forms follow the SMILES beside them.

How the values were obtained:
[1] = system: methicillin-resistant S. aureus strain (ATCC 43300); format: cell-based, Staphylococcus aureus; settings: ATCC 43300, 18 h
Protocol: Furthermore, sensitivity of a methicillin-resistant S. aureus strain (ATCC 43300) was investigated for palmitoylated CIDAMPs in a microtiter plate screening model, with incubation in Mueller-Hinton medium at 37° C. for 18 h using resazurin as a marker for cell viability.
A sample of each culture was then diluted 40-fold in fresh broth and incubated at 37° C. for 1.5-3 h. […] All the plates were covered and incubated at 37° C. for 18 h.
(§1) Inhibition of bacterial growth was determined using resazurin as a marker for cell viability. Resazurin was added to each well, at 0.001% final concentration, and plates incubated at 37° C. for 2 h. Fluorescence intensity was measured, using F (top read), ex 560/10 nm, em 590/10 nm, using a Tecan M1000 Pro monochromator plate reader.

[2] = Cytotoxicity (resazurin) assay
Summary of the method: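 HEK293 cells (4000/well) in DMEM with 10% FBS exposed to compound for 20 h at 37 °C, 5% CO2. Resazurin (100 μM final) added for a further 3 h and fluorescence read at 560/590 nm. CC50 obtained from dose–response fit of percentage cytotoxicity.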

[3] = Hemolysis assay; format: cell-based; settings: for HC50 at 1 h: human, washed erythrocytes from EDTA-blood, pH 7.4
Summary of the method: (§2)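 Washed EDTA-blood erythrocytes in 5% PBS, pH 7.4, were rotated 1 h at 37° C with peptides at 0, 3, 10, 30, 60 μm. Hemoglobin release read at 540 nm as % of 0.1% Triton X-100 hemolysis; CC50 from dose-response curve of triplicates.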

[4] = system: erythrocytes; experiment: Hemolysis assay; format: cell-based
Summary of the method: as §2

[5] = system: A. baumannii ATCC 19606; format: cell-based, Acinetobacter baumannii; settings: ATCC 19606, 2 h
Protocol: as §1

[6] = system: E. coli ATCC 25922; format: cell-based, Escherichia coli; settings: ATCC 25922, 2 h
Protocol: as §1

[7] = system: P. aeruginosa ATCC 27853; format: cell-based, Pseudomonas aeruginosa; settings: ATCC 27853, 2 h
Protocol: as §1

[8] = system: C. albicans ATCC 928; settings: for MIC: ATCC 928, 18 h, pH 7.4
[9] = system: C. neoformans
[10] = system: P. aeruginosa ATCC 10145; experiment: CFU-assay, P. aeruginosa-cidal activity; format: cell-based, Pseudomonas aeruginosa
[11] = system: S. aureus ATCC 6538; experiment: CFU-assay, S. aureus-cidal activity; format: cell-based, Staphylococcus aureus
Summary of the method: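 Bactericidal CFU-assay in nutrient-deficient 10 mM sodium phosphate buffer pH 5.5 with 0.25% glucose, counting surviving colonies across twofold peptide dilutions from 300 μg/ml to 19 ng/ml. Output is minimal bactericidal concentration (e.g. MBC90, MBC100); some peptides also tested at pH 7.0.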

[12] = system: Streptococcus pneumoniae ATCC 33400; experiment: CFU-assay, antimicrobial activity spectrum; format: cell-based; settings: pH 7.3, 0.25% glucose
[13] = system: Streptococcus pyogenes ATCC 12344; experiment: CFU-assay, antimicrobial activity spectrum; format: cell-based
[14] = system: Escherichia coli ATCC11775; experiment: CFU-assay, antimicrobial activity spectrum; format: cell-based
[15] = system: Burkholderia cepacia ATCC 25416; experiment: CFU-assay, Burkholderia cepacia-cidal activity; format: cell-based
[16] = system: Staphylococcus epidermidis ATCC 14990; experiment: CFU-assay, antimicrobial activity spectrum; format: cell-based; settings: pH 5.5, 0.25% glucose
[17] = system: Klebsiella pneumoniae ATCC 13883; experiment: CFU-assay, Klebsiella pneumoniae-cidal activity; format: cell-based
[18] = system: Salmonella typhimurium ATCC 13311; experiment: CFU-assay, antimicrobial activity spectrum; format: cell-based
[19] = system: Candida albicans ATCC 24433; experiment: CFU-assay, Candida albicans-cidal activity; format: cell-based
Protocol: Thus, within the present invention, the antimicrobial activity is generally measured in nutrient deficient 10 mM sodium phosphate buffer pH 5.5, containing 0.25% glucose, using the CFU-assay according to Steinberg and Lehrer, 1997 (supra), unless otherwise indicated. The CFU-assay allows determination of the minimal bactericidal concentration (MBC, e.g., MBC90 and MBC100; i.e. the concentration of compound required to achieve a specified reduction in bacterial cell number (microbial death or killing)). […]
HR 1-17 affects C. albicans ATCC 24433 with highest activity at pH 5.5 in the absence of TSB in the medium (see Tables 12, 24). […] Furthermore, the substitution of any of the Arg residues by Gly leads to a dramatic reduction or loss of candidacidal activity (see Table 24).

[20] = standard conditions at pH 7.4, activity at concentration <32 pg/ml

With CCCCCCCCCCCCCCCC(=O)NCC(=O)N[C@@H](CCCNC(=N)N)C(=O)N[C@@H](CCCNC(=N)N)C(=O)NCC(=O)N[C@@H](CO)C(=O)NCC(=O)N[C@@H](CC(C)C)C(=O)NCC(=O)N[C@@H](CCCNC(=N)N)C(=O)N[C@@H](CO)C(=O)N[C@@H](CO)C(=O)N[C@@H](CO)C(=O)N[C@@H](CCCNC(=N)N)C(=O)NCC(=O)N[C@@H](CCC(N)=O)C(=O)N[C@@H](CCCNC(=N)N)C(=O)NCC(=O)N[C@@H](CO)C(=O)NCC(=O)N[C@@H](CO)C(=O)NCC(=O)N[C@@H](CCCNC(=N)N)C(=O)O [Pal-HR 1-18 HR] (HELM PEPTIDE1{[CCCCCCCCCCCCCCCC(=O)[*:2]].G.R.R.G.S.G.L.G.R.S.S.S.R.G.Q.R.G.S.G.S.G.R}$$$$V2.0) the “MIC, S. aureus ATCC 43300” value [1] was at least 8 µg/mL, the CC50 [2] was > 32 µg/mL and > 13.3 µM and the HC50 [3] was over 300 µg/mL. The HC50 at 1 h [3] was over 119 µM, the “hemolytic activity (in words)” value [4] was “low hemolytic activity” and the “MIC, A. baumannii ATCC 19606” value [5] was at least 1 µg/mL. For the same molecule, the “MIC, E. coli ATCC 25922” value [6] was at least 4 µg/mL, the “MIC, P. aeruginosa ATCC 27853” value [7] was at least 16 µg/mL and the MIC [8] was 1 to 32 µg/mL. The “MIC, C. neoformans ATCC 208821” value [9] was at least 1 µg/mL.

For CCCCCCCCCCCCCCCC(=O)N[C@@H](CO)C(=O)N[C@@H](Cc1c[nH]cn1)C(=O)N[C@@H](Cc1c[nH]cn1)C(=O)N[C@@H](CCCNC(=N)N)C(=O)N[C@@H](CS)C(=O)N[C@@H](CS)C(=O)N[C@@H](CCCNC(=N)N)C(=O)N[C@@H](CO)C(=O)N[C@@H](Cc1c[nH]cn1)C(=O)N[C@@H](CCCNC(=N)N)C(=O)N[C@@H](CS)C(=O)N[C@@H](CCCNC(=N)N)C(=O)N[C@@H](CCCNC(=N)N)C(=O)O [Pal-LCE3B56-68] (HELM PEPTIDE1{[CCCCCCCCCCCCCCCC(=O)[*:2]].S.H.H.R.C.C.R.S.H.R.C.R.R}$$$$V2.0), the “P. aeruginosa MBC90” value ([10]; pH 5.5) was 0.088 µM, the “P. aeruginosa MBC100” value ([10]; pH 5.5) was 0.176 µM and the MBC90 ([10]; pH 5.5, 0.25% glucose) was 0.075 µg/mL (≈ 0.0388 µM). The MBC100 ([10]; pH 5.5, 0.25% glucose) was 0.3 µg/mL (≈ 0.155 µM), the “S. aureus MBC90” value ([11]; pH 5.5) was 0.011 µM and the “S. aureus MBC100” value ([11]; pH 5.5) was 0.078 µM. The MBC90 ([11]; pH 5.5, 0.25% glucose) was under 0.019 µg/mL, the MBC100 ([11]; pH 5.5, 0.25% glucose) was 0.15 µg/mL (≈ 0.0776 µM) and the MBC90 [12] was 0.59 µg/mL (≈ 0.305 µM). The MBC100 [12] was 2.35 µg/mL (≈ 1.22 µM), the MBC90 ([13]; pH 6.0, 0.25% glucose) was 0.15 µg/mL (≈ 0.0776 µM) and the MBC100 ([13]; pH 6.0, 0.25% glucose) was 0.59 µg/mL (≈ 0.305 µM). For the same molecule, the MBC90 ([13]; pH 7.3, 0.25% glucose) was 0.15 µg/mL (≈ 0.0776 µM), the MBC100 ([13]; pH 7.3, 0.25% glucose) was 0.3 µg/mL (≈ 0.155 µM) and the MBC90 ([14]; pH 5.5, 0.25% glucose) was 0.3 µg/mL (≈ 0.155 µM). For the same molecule, the MBC90 ([14]; pH 7.3, 0.25% glucose) was 0.59 µg/mL (≈ 0.305 µM), the MBC100 ([14]; pH 7.3, 0.25% glucose) was 1.18 µg/mL (≈ 0.611 µM) and the MBC90 ([15]; pH 5.5, 0.25% glucose) was over 300 µg/mL. For the same molecule, the MBC100 ([15]; pH 5.5, 0.25% glucose) was over 300 µg/mL, the MB100 ([15]; pH 7.3) was 4.9 µM and the MBC90 ([15]; pH 7.3) was 2.4 µM. It also gave an MBC90 ([15]; pH 7.3, 0.25% glucose) of 4.7 µg/mL, an MBC100 ([15]; pH 7.3, 0.25% glucose) of 9.38 µg/mL (≈ 4.85 µM) and an MBC100 ([15]; pH 7.3, 0.25% glucose, listed as palmitoyl-LCE3B56-68) of 9.375 µg/mL (≈ 4.85 µM). The MBC90 [16] was 0.3 µg/mL (≈ 0.155 µM), the MBC100 [16] was 0.3 µg/mL (≈ 0.155 µM) and the MBC90 ([17]; pH 5.5) was 0.052 µM. It also gave an MBC100 ([17]; pH 5.5) of 4.9 µM, an MBC90 ([17]; pH 5.5, 0.25% glucose) of 0.15 µg/mL and an MBC100 ([17]; pH 5.5, 0.25% glucose) of 9.375 µg/mL. The MBC90 ([17]; pH 7.3, 0.25% glucose) was 2.35 µg/mL, the MBC100 ([17]; pH 7.3, 0.25% glucose) was 4.7 µg/mL and the MBC90 ([18]; pH 5.5) was 0.02 µM. The MBC100 ([18]; pH 5.5) was 0.155 µM, the MBC90 ([18]; pH 5.5, 0.25% glucose) was 0.038 µg/mL and the MBC100 ([18]; pH 5.5, 0.25% glucose) was 0.3 µg/mL. The MBC90 ([18]; pH 7.3, 0.25% glucose) was 1.18 µg/mL, the MBC100 ([18]; pH 7.3, 0.25% glucose) was 2.35 µg/mL and the “MIC, S. aureus ATCC 43300” value [1] was at least 16 µg/mL. The CC50 [2] was > 32 µg/mL and > 16.6 µM, the CC50 [3] was over 100 µg/mL and the HC50 at 1 h [3] was over 78 µM. For the same molecule, the “MIC, C. albicans ATCC 90028” value ([8]; ATCC 928) was at least 1 µg/mL, the MIC [8] was 1 to 32 µg/mL and the “Antifungal activity, C. albcans ATCC90028” value [8, 20] was “A (A-active)”. For the same molecule, the “MIC, C. neoformans ATCC 208821” value [9] was at least 0.25 µg/mL and the “Antifungal activity, C. neoformans ATCC 208821” value [9, 20] was “A (A-active)”.

With “GRHGSGLGHSSSHGQHGSGSGRSSSRGPY (Peptide derived from human hornerin (HR 1-17))” the MBC90 ([10]; pH 5.0, 0.25% glucose) was 0.038 µg/mL and 0.0375 µg/mL, the MBC100 ([10]; pH 5.0, 0.25% glucose) was 0.15 µg/mL and the MBC100 ([10]; pH 5.5, 0.25% glucose) was 0.15 µg/mL and 0.3 µg/mL. The MBC90 ([10]; pH 5.5, 1% TSB) was 0.59 µg/mL, the MBC100 ([10]; pH 5.5, 1% TSB) was 18.75 µg/mL and the MBC90 ([11]; pH 5.5, 1% TSB) was over 300 µg/mL. The MBC100 ([11]; pH 5.5, 1% TSB) was over 300 µg/mL, the MBC90 ([14]; pH 5.5, 1% TSB) was over 300 µg/mL and the MBC100 ([14]; pH 5.5, 1% TSB) was over 300 µg/mL. The MBC90 [19] was 0.56 µM, the MBC90 ([19]; pH 5.5, 0.25% glucose) was 1.18 µg/mL and the MBC100 ([19]; pH 5.5, 0.25% glucose) was 9.38 µg/mL. For the same molecule, the MBC100 ([19]; pH 5.5, 1% TSB) was 150 µg/mL and >300 µg/mL, the MBC90 ([19]; pH 7.2, 1.% TSB) was over 300 µg/mL and the MBC100 ([19]; pH 7.2, 1.% TSB) was over 300 µg/mL. It also gave an MBC90 ([15]; pH 5.5, 0.25% glucose) of over 300 µg/mL and an MBC100 ([15]; pH 5.5, 0.25% glucose) of over 300 µg/mL.
